The assay concerns HeLa229. Briefly: HeLa229 cytotoxicity assay (MTT readout). The format is cell-based. To be noted: 72 hrs. The procedure:
We tested IL-20 in a HeLa229 cytotoxicity assay to measure the ability of IL-20 to prevent cells from growing during normal growth conditions. We used MTT reagent (Promega, Madison, WI USA) as our detection and readout for this inhibition assay. Procedure of a cytotoxicity assay:
Day 1—Plate cells out in complete growth media (with serum) at 5000 cells/well in a 96 well format and let them incubate overnight at 37 degrees and 5% CO2.
Day 2—Dump off media and add a dose response of appropriate ligands in complete growth media (IL-20, zmda1, and MDA7 at 10, 100, and 1000 ng/ml.), along with a positive control retinoic acid (100 uM) in complete growth media, while leaving some wells in complete growth media as controls of how the cells normally grow under normal conditions. Put the cells in incubator and let the assay go for 72 hrs.
Day 5—Add 15 ul/well of MTT reagent, let cells inc. for 4 hrs., then add 100 ul of stop solution, let cells inc. for an additional 1 hr., then read the plate on a multilabel counter (Victor2, PerkinElmer Life Sciences Inc., Boston). The MTT protocol will give you two readings, one at a 650 wavelength (background) and one at a 572 wavelength. Subtract the 650 reading from the 572 reading to get your actual output. These numbers are averaged and converted to a % inhibition value.

On to `CC1=C(/C=C/C(C)=C/C=C/C(C)=C/C(=O)O)C(C)(C)CCC1` [Retnoic Acid, retinoic acid], for which the inhibition (usually the change of the read-out against control, counted positive when it falls) at 100 µM (Homo sapiens, HeLa 229, HeLa229 cells, retinoic acid 100 uM (positive control), read-out: inhibition of growth) was 53%.

B1: IL-20: Interleukin-20 (formally called Zcyto10); human polypeptide of 176 amino acids, SEQ ID NO:2 (protein, listed as Homo sapiens)
chain: MKASSLAFSLLSAAFYLLWTPSTGLKTLNLGSCVIATNLQEIRNGFSDIRGSVQAKDGNIDIRILRRTESLQDTKPANRCCLLRHLLRLYLDRVFKNYQTPDHYTLRKISSLANSFLTIKKDLRLCHAHMTCHCGEEAMKKYSQILSHFEKLEPQAAVVKALGELDILLQWMEETE
On to B1, for which the “maximal inhibition of growth” value (HeLa229 cells, IL-20 dose response 10, 100, and 1000 ng/ml) stood at 20%.

Values taken from patent US8486382B2, “Method for treating cervical cancer” (ZymoGenetics, Inc., priority 2001, dated 2013).
